From the Deep4Chem optical property database

Assay: solvent given as SMILES
[1] = in O=P(c1ccccc1)(c1ccccc1)c1ccccc1Oc1ccccc1P(=O)(c1ccccc1)c1ccccc1

CCCC1(CCC)c2ccccc2-c2ccc(-c3ccc4c(c3)C(CCC)(CCC)c3cc(-c5ccc6c(c5)C(CCC)(CCC)c5ccccc5-6)ccc3-4)cc21
emission maximum (in C1CCCCC1): 396 nm

c1ccc(-c2cnc3nn4ccccc4c3n2)cc1
emission maximum (in C1CCOC1): 449 nm

O=c1c2cc(S(=O)(=O)O)ccc2[nH]c2ccc(S(=O)(=O)O)cc12
emission maximum (in CS(C)=O): 417 nm | emission maximum (in O): 417 nm

O=Cc1c(O)c(-c2nc3ccccc3s2)cc2ccccc12
emission maximum (in C1CCOC1): 497 nm | emission maximum (in CC#N): 505 nm | emission maximum (in CC(C)=O): 507 nm | emission maximum (in CCO): 503 nm | emission maximum (in CCOC(C)=O): 501 nm | emission maximum (in CN(C)C=O): 538 nm | emission maximum (in CO): 525 nm | emission maximum (in Cc1ccccc1): 509 nm | emission maximum (in ClC(Cl)Cl): 505 nm | emission maximum (in ClCCl): 505 nm

C1=Cc2ccc3ccccc3c2NB1c1ccccc1
emission maximum (in C1CCCCC1): 383 nm

CCCCN1C(=O)c2cc(Oc3ccc(C(C)(C)C)cc3)c3c4c(Oc5ccc(C(C)(C)C)cc5)cc5c(=O)n6c(c7cc(Oc8ccc(C(C)(C)C)cc8)c(c8c(Oc9ccc(C(C)(C)C)cc9)cc(c2c38)C1=O)c4c57)=Cc1ccc2ccccc2[n+]1[B-]6(F)F
emission maximum (in ClCCl): 684 nm

Cc1cc(O)c(C(C)C)cc1/N=C/c1ccc(C(F)(F)F)cc1
emission maximum (in C1CCCCC1): 398 nm | emission maximum (in C1CCOC1): 426 nm | emission maximum (in C1COCCO1): 424 nm | emission maximum (in CC#N): 425 nm | emission maximum (in CC(C)(C)O): 431 nm | emission maximum (in CC(C)O): 434 nm | emission maximum (in CCCCCC): 401 nm | emission maximum (in CCCCO): 436 nm | emission maximum (in CCO): 429 nm | emission maximum (in CCOC(C)=O): 421 nm | emission maximum (in CN(C)C=O): 434 nm | emission maximum (in CO): 434 nm | emission maximum (in CS(C)=O): 439 nm | emission maximum (in ClC(Cl)Cl): 430 nm | emission maximum (in ClCCl): 424 nm | emission maximum (in O): 449 nm | emission maximum (in OCCO): 438 nm

CC1(C)CC(NCc2ccc3ccc4cccc5ccc2c3c45)CC(C)(C)N1[O]
emission maximum (in C1CCCCC1): 375 nm | emission maximum (in CC#N): 376 nm | emission maximum (in CO): 375 nm | emission maximum (in ClC(Cl)Cl): 376 nm

N#Cc1c(-n2c3ccc(-c4ccccc4)cc3c3cc(-c4ccccc4)ccc32)c(-n2c3ccc(-c4ccccc4)cc3c3cc(-c4ccccc4)ccc32)c(C#N)c(-n2c3ccc(-c4ccccc4)cc3c3cc(-c4ccccc4)ccc32)c1-n1c2ccc(-c3ccccc3)cc2c2cc(-c3ccccc3)ccc21
emission maximum (in Cc1ccccc1): 577 nm

CCc1ccc(-n2c3ccccc3c3cc4c(cc32)c2ccccc2n4-c2ccc(CC)s2)s1
emission maximum (in ClC(Cl)Cl): 405 nm

Cc1ccc(C2=Cc3c4ccccc4c4ccccc4[n+]3[B-](F)(F)O2)cc1
emission maximum (in ClC(Cl)Cl): 450 nm

CN1C(=CC2=C([S-])C(=Cc3sc4ccccc4[n+]3C)C2=O)C(C)(C)c2ccccc21
emission maximum (in ClC(Cl)Cl): 676 nm

c1ccc(C2CCN3COc4c5ccccc5c5c6c7c(c2c3c46)C(c2ccccc2)CCN7CO5)cc1 (stereo not drawn)
emission maximum (in C1CCCCC1): 535 nm | emission maximum (in C1CCOC1): 583 nm | emission maximum (in C1COCCO1): 577 nm | emission maximum (in CC#N): 610 nm | emission maximum (in CC(C)=O): 603 nm | emission maximum (in CCOC(C)=O): 584 nm | emission maximum (in CCOCC): 562 nm | emission maximum (in CN(C)C=O): 612 nm | emission maximum (in CO): 598 nm | emission maximum (in CS(C)=O): 618 nm | emission maximum (in Cc1ccccc1): 565 nm | emission maximum (in ClC(Cl)Cl): 596 nm | emission maximum (in ClCCl): 600 nm

CCN(CC)c1ccc2cc3c([o+]c2c1)/C(=C/Nc1ccccc1)CCC3
emission maximum (in CCO): 647 nm | emission maximum (in ClC(Cl)Cl): 642 nm | emission maximum (in ClCCl): 647 nm

CCN(CC)c1ccc2cc(/C=C/c3cccc[n+]3CCCS(=O)(=O)[O-])c(=O)oc2c1
emission maximum (in C1CCOC1): 641 nm | emission maximum (in CC#N): 634 nm | emission maximum (in CC(C)=O): 639 nm | emission maximum (in CS(C)=O): 642 nm | emission maximum (in Cc1ccccc1): 641 nm | emission maximum (in O): 627 nm | emission maximum (in OCC(O)CO): 625 nm

O=C(O)COc1cccc(-c2c3nc(cc4ccc([nH]4)c(-c4cccc(OCC(=O)O)c4)c4nc(cc5ccc2[nH]5)CC4)CC3)c1
emission maximum (in CS(C)=O): 738 nm

FC(F)(F)C(F)(F)C(F)(F)C(F)(F)C(F)(F)C(F)(F)CCOc1nnc(Cl)nn1
emission maximum (in ClCCl): 566 nm | emission maximum (in OCC(F)(F)F): 555 nm

CC1(C)c2ccccc2N(c2ccccc2)c2ccc(-c3ccc(C(=O)c4ccc(-c5ccc6c(c5)C(C)(C)c5ccccc5N6c5ccccc5)cc4)cc3)cc21
emission maximum (in Cc1ccccc1): 449.72 nm | emission maximum [1]: 475 nm

O=Cc1cc(C=O)c2ccc3c(N4CCCCC4)cc(N4CCCCC4)c4ccc1c2c43
emission maximum (in C1COCCO1): 585 nm | emission maximum (in CC#N): 602 nm | emission maximum (in CC(C)=O): 598 nm | emission maximum (in CCCCCC): 557 nm | emission maximum (in CCO): 609 nm | emission maximum (in CCOC(C)=O): 587 nm | emission maximum (in CO): 613 nm | emission maximum (in CS(C)=O): 609 nm | emission maximum (in Cc1ccccc1): 582 nm | emission maximum (in ClCCl): 602 nm

Cc1ccc(/C=C/c2ccccc2-[n+]2noc([O-])c2-c2ccccc2)cc1
emission maximum (in C1CCCCC1): 400 nm | emission maximum (in CC#N): 506 nm

C(=C\c1ccc(/C=C/c2ccc(N(c3ccccc3)c3ccccc3)cc2)c2nsnc12)/c1ccc(N(c2ccccc2)c2ccccc2)cc1
emission maximum (in C1CCOC1): 637 nm | emission maximum (in CCOC(C)=O): 627 nm | emission maximum (in CN(C)C=O): 690 nm | emission maximum (in Cc1ccccc1): 611 nm | emission maximum (in ClC(Cl)Cl): 651 nm | emission maximum (in ClCCl): 659 nm

CC1(C)c2cc(-n3c4ccccc4c4ccccc43)ccc2N(c2ccc(-c3cc(-c4ccccc4)nc(-c4ccccc4)n3)cc2)c2ccc(-n3c4ccccc4c4ccccc43)cc21
emission maximum (in Cc1ccccc1): 494.44 nm

CC1=N/C(=C\c2ccncc2)C(=O)N1C
emission maximum (in C1COCCO1): 439 nm | emission maximum (in CC#N): 452 nm | emission maximum (in CCO): 453 nm | emission maximum (in CCOC(C)=O): 442 nm | emission maximum (in O): 464 nm

O=c1c2cc(S(=O)(=O)Cl)ccc2[nH]c2ccc(S(=O)(=O)Cl)cc12
emission maximum (in CS(C)=O): 417 nm

CC(C)(C)c1ccc2c(c1)c1cc(C(C)(C)C)ccc1n2-c1cccc(-c2nc(-c3cccc(P(=O)(c4ccccc4)c4ccccc4)c3)nc(-c3cccc(P(=O)(c4ccccc4)c4ccccc4)c3)n2)c1
emission maximum (in C1CCOC1): 511.91 nm | emission maximum (in CC#N): 581.72 nm | emission maximum (in CC(C)=O): 554.6 nm | emission maximum (in CN(C)C=O): 567.81 nm | emission maximum (in Cc1ccccc1): 480.78 nm | emission maximum (in ClC(Cl)Cl): 512.5 nm | emission maximum (in ClCCl): 535.02 nm | emission maximum [1]: 484 nm

CSc1nc(-c2ccc(-n3c4ccccc4c4ccccc43)cc2)cc(-c2ccc(-n3c4ccccc4c4ccccc43)cc2)n1
emission maximum (in C1CCOC1): 447 nm | emission maximum (in CN(C)C=O): 497 nm | emission maximum (in Cc1ccccc1): 410 nm | emission maximum (in ClC(Cl)Cl): 446 nm

N#CC(C#N)=Cc1ccc(-c2cccc(-c3nc4ccccc4s3)c2O)o1
emission maximum (in CCO): 631 nm | emission maximum (in ClCCl): 605 nm | emission maximum (in O): 635 nm

CCCCc1ccc(-n2c3c(c4c2c2c(n4-c4ccc(CCCC)cc4)-c4ccc(C(F)(F)F)cc4NB2c2ccccc2)B(c2ccccc2)Nc2cc(C(F)(F)F)ccc2-3)cc1
emission maximum (in Cc1ccccc1): 413 nm

COc1ccc(-c2cc(-c3ccccc3)nn2C)cc1
emission maximum (in ClCCl): 333 nm

Cc1nc2cccc(-c3nc4ccccc4o3)c2c(=O)[nH]1
emission maximum (in CN(C)C=O): 398 nm

CC(C)(C)c1ccc(-c2c(-c3cccc(N(c4ccccc4)c4ccccc4)c3)c(C#N)c(-c3cccc(N(c4ccccc4)c4ccccc4)c3)c(-c3ccc(C(C)(C)C)cc3)c2-c2ccc(C(C)(C)C)cc2)cc1
emission maximum (in C1CCOC1): 448 nm

c1ccc(-c2nc(-c3ccc(N4c5ccccc5Oc5ccccc54)cc3)nn2-c2ccc(N3c4ccccc4Oc4ccccc43)cc2)nc1
emission maximum (in ClCCl): 490 nm

COc1ccc(/C=C/C2=CC(/C=C/c3ccc(OC)c4ccccc34)=[O+][B-](F)(F)O2)c2ccccc12
emission maximum (in CC#N): 651 nm | emission maximum (in CC(C)=O): 622 nm | emission maximum (in CCOC(C)=O): 590 nm | emission maximum (in CCOCC): 587 nm | emission maximum (in ClC(Cl)(Cl)Cl): 561 nm | emission maximum (in ClCCl): 616 nm

COc1ccc(/C=C/c2cc(/C=C/c3ccc(OC)cc3)nc(/C=C/c3ccc(N(c4ccccc4)c4ccccc4)cc3)n2)cc1
emission maximum (in C1CCOC1): 511 nm | emission maximum (in CC#N): 627 nm | emission maximum (in CC(C)=O): 572 nm | emission maximum (in CCCCCCC): 439 nm | emission maximum (in CS(C)=O): 622 nm | emission maximum (in Cc1ccccc1): 466 nm | emission maximum (in ClCCl): 558 nm

CC(C)(C)c1ccc2c(c1)c1cc(C(C)(C)C)ccc1n2-c1ccc(N(c2ccc(-c3ccc(-c4ccc(-c5ccc(N(c6ccc(-n7c8ccc(C(C)(C)C)cc8c8cc(C(C)(C)C)ccc87)cc6)c6ccc(-n7c8ccc(C(C)(C)C)cc8c8cc(C(C)(C)C)ccc87)cc6)cc5)s4)s3)cc2)c2ccc(-n3c4ccc(C(C)(C)C)cc4c4cc(C(C)(C)C)ccc43)cc2)cc1
emission maximum (in ClCCl): 494 nm

c1ccc2c(c1)ccc1ccc3ccc4ccc5ccccc5c4c3c12
emission maximum (in ClCCl): 476 nm

Fc1ccc(N(c2ccccc2)c2ccc3ccc4c(N(c5ccccc5)c5ccc(F)cc5)ccc5ccc2c3c54)cc1
emission maximum (in ClCCl): 470 nm

CC(C)(C)c1ccc(C2=C(c3ccc(C(C)(C)C)cc3)C(c3ccc(C(C)(C)C)cc3)=[N+]3C2=C(c2ccccc2)c2c(-c4ccc(C(C)(C)C)cc4)c(-c4ccc(C(C)(C)C)cc4)c(-c4ccc(C(C)(C)C)cc4)n2[B-]3(F)F)cc1
emission maximum (in C1CCCCC1): 634 nm | emission maximum (in C1CCOC1): 637 nm | emission maximum (in CC#N): 629 nm | emission maximum (in Cc1ccccc1): 639 nm | emission maximum (in ClCCl): 636 nm

CC(C)(C)c1cc(/C2=C3\C=CC(=N3)/C(c3ccc([N+](=O)[O-])cc3)=c3/cc/c([nH]3)=C(\c3ccc([N+](=O)[O-])cc3)C3=N/C(=C(/c4cc(C(C)(C)C)cc(C(C)(C)C)c4)c4cc2c[nH]4)C=C3)cc(C(C)(C)C)c1
emission maximum (in CC(=O)N(C)C): 717 nm

N#Cc1c(N2CCCC2)cc(-c2ccccc2)c2c1-c1cccc3cccc-2c13
emission maximum (in O): 550 nm

CC(C)(C)C1Nc2ccccc2C(=O)N1Cc1ccccc1 (stereo not drawn)
emission maximum (in CC#N): 409 nm | emission maximum (in CCCCCCCCCCCCCCCC): 381 nm | emission maximum (in CO): 439 nm | emission maximum (in ClC(Cl)Cl): 404 nm | emission maximum (in c1ccccc1): 393 nm

Cc1sc(Cl)cc1-c1nc(-c2ccccc2)[nH]c1-c1cc(Cl)sc1C
emission maximum (in CC#N): 381 nm
